Measurements reported in patent publication US20060160897A1, “Topical Use of Valproic Acid for the Prevention or Treatment of Skin Disorders” (priority 2003, published 2006).

Experiments:
HaCaT cells [1] = assay: MTT assay, growth of human immortalized keratinocytes; format: cell-based
Experimental: MTT assay: This calorimetric assay detects the formation of formazan which is proportional to the number of cells present. Tissue culture medium containing drugs was removed and 200 μl of DME containing 2 mg/ml MTT ((3-4, 5-dimethyl thiazol-2yl) 2,5-diphenyltetrazolium bromide) was added to each well. 96-well plates were incubated at 37 ° C., and 10% CO2 for 30 minutes. Medium containing MTT was then removed and the cells were washed once with PBS. Following removal of the PBS, 200 μL DMSO was added to each well and plates were placed on a rotating platform shaker for 5 minutes. Results were obtained by reading the absorbance at a wavelength of 550 nm using a spectrophotometer. Results are expressed as percentages setting the control as 100%.
FIG. 1 graphically depicts the results of growth assays performed on human immortalized keratinocytes (HaCaT cells), treated for three days with the indicated compounds. Drugs were added on the same day of plating (day 0). The MTT assay (to measure cell proliferation) was carried out on day 3. Various combinations of the drugs were used in the growth assays.
Cells were plated in wells on day 0. […] The MTT assay was carried out on day 3. Various combinations of the drugs were also used in the growth assays. […] Thus, the combinatorial activity of these two drugs must be explained via synergistic activity of this treatment.
Drugs were added on the same day of plating (day 0). The MTT assay (to measure cell proliferation) was carried out on the third day. […] Thus, this combinatorial activity of these two drugs must be explained via synergistic activity of this treatment.

inflammatory cytokines [2] = assay: Semiquantitative RT-PCR of cytokine mRNA, PMA/Ion stimulated peripheral blood lymphocytes; format: cell-based, human; conditions: for cytokine expression (mRNA): PMA/Ion stimulation, FIG. 13 A and B
Experimental: (§1) Monocyte and macrophage depleted peripheral blood mononuclear cells were obtained from consenting adults via separation using Ficoll-Hypaque. The peripheral blood mononuclear cells (PBMC) fraction was washed and seeded in 9 cm petri dishes. After an incubation of 2 hours at 37° C. to remove most of the monocytes, macrophages, and B-cells, the non-adherent cells were collected and cultured in 175 cm^2 flasks for 2 days. Cells were harvested and adjusted to 3 million cells per ml. Aliquots of 500 μl were transferred to each well of 24-well flat bottom plates. Peripheral blood lymphocytes (PBL's) were treated with various concentrations of HDAC inhibitors as indicated. After a 2 hours incubation time at 37° C. cells were stimulated with phorbol 12-myristate 13-acetate (PMA)/ionomycin (Ion) or activated via T cell receptor (TCR/CD3) complex with 10 μg/ml anti-CD3 mAb (OKT3) and 2.5 μg/ml anti-CD28 mAb. After 24 hours at 37° C. the supernatant was removed and frozen for cytokine assays. Cell pellets were lysed and total RNA was isolated using the RNeasy mini kit from Qiagen.
(§2) One microgram of total RNA was transcribed to cDNA by standard methods using reverse transcriptase and an oligo-dT primer (Invitrogen). For semiquantitative PCR, 2 μl of cDNA was amplified by PCR using specific primers. Primers for PCR were synthesized by MWG and are as follows: […]

IL-2 and TNF-α = IL-2 and TNF-α ELISA, supernatants of stimulated peripheral blood lymphocytes; format: cell-based, human; conditions: PBLs, FIG. 15; for concentration at which inhibition of IL-2 and TNF-α expression was maximal: CD3/CD28; for IL-2 secretion, dose-response / TNF-α secretion, dose-response: increasing concentrations two hours, CD3 and CD28 mAbs 24 hours
Experimental: as §1
To perform ELISAs, supernatants of treated and untreated PBL's were collected and IL-2 as well as TNF-α were measured using the Duo Set ELISA Development System (R&D Systems) as described by the manufacturer.

[3] = system: stage III/IV non-small cell lung cancer; conditions: monotherapy, phase II (Keer et al., 2002); cited from earlier work
inflammatory cytokines [4] = assay: Semiquantitative RT-PCR of cytokine mRNA, LPS stimulated keratinocytes; format: cell-based, human; conditions: HaCaT, 200 nM TSA or 5 mM VPA 4 hours, then LPS 100 ng/ml 24 hours, FIG. 12A
Experimental: Human immortalized keratinocytes (HaCaT cells) were seeded at a density of 2.5 million cells per ml into 75 cm^2 flasks. […] After 24 hours at 37° C. cells were lysed and total RNA was isolated using the RNeasy mini kit from Qiagen.
as §2

F9 cells = conditions: cited from earlier work
PPARδ = conditions: cited from earlier work
Basal Cell Carcinoma [5] = conditions: Tazarotene used alone; cited from earlier work
Basal Cell Carcinoma [6] = assay: Topical treatment of BCC patients with Tazarotene and VPA; format: in vivo, human; conditions: 4 lesions pre-treated with Tazarotene alone for at least 16-20 weeks
Experimental: 10 lesions were treated: 8 Superficial BCCs and 2 pigmented BCC. […] Lesions were evaluated clinically and photographed every two weeks.

HaCaT cells [7] = assay: Apoptosis assay, flow cytometry of Sub-G1 DNA containing cells; format: cell-based, human; conditions: drugs day 1, assay day 2, combinations VPA 1 mM + Tazarotene 1 or 2 μM, FIG. 5
Experimental: Apoptosis assays: Apoptosis was measured by a Beckton Dickinson FACScalibur flow cytometer by analysing the percentage of Sub-G1 DNA containing cells. 10000 events were recorded for each sample. The amplification scale was linear for all parameters. Photomultiplier tension was set as to place the peak DNA content corresponding cells in G0/G1 at channel 300 in the FL2-H vs SCC—H graphs. Cells showing a less than peak DNA content (hypodiploid cells) and high SSC—H (granular high condensed cells) were regarded as apoptotic. The experiments were repeated three times in duplicate. Error bars represent 1 standard deviation.
Cells were plated in 35 mm diameter wells on day 0. Drugs were added on day 1. The apoptosis assay was carried out on day 2. […] Thus, the combinatorial activity of these two drugs must be explained via synergistic activity of this treatment.

T-cell lymphomas = conditions: phase II trial (Piekarz et al., 2001); cited from earlier work
[8] = system: acute promyelocytic leukemia; conditions: one PML-RAR patient with multiple relapses after retinoic acid (Warrell et al., 1998); cited from earlier work
[9] = vs untreated stimulated control
[10] = PBLs preincubated 2 hours, PMA/Ion 24 hours, FIGS. 12B, 13

## O=c1[nH]cc(F)c(=O)[nH]1 [5-FU, 5-Fluorouracil]
HaCaT cells [1]; MTT on the third day, 5 μM or 10 μM 5-FU and 1 mM VPA, FIG. 3
  cell growth (MTT assay): inhibited growth

## O=C(CCC1CCCC1)NO [G2M-701]
Inflammatory cytokines [2]
  cytokine expression (mRNA): can modulate cytokine expression
IL-2 and TNF-α
  concentration at which inhibition of IL-2 and TNF-α expression was maximal: 6 µM
  IL-2 secretion, dose-response: dose-dependent inhibition
  TNF-α secretion, dose-response: dose-dependent inhibition

## O=C(CCC1CCCCC1)NO [G2M-702]
Inflammatory cytokines [2]
  cytokine expression (mRNA): can modulate cytokine expression
IL-2 and TNF-α
  concentration at which inhibition of IL-2 and TNF-α expression was maximal: 3 µM
  IL-2 secretion, dose-response: dose-dependent inhibition
  TNF-α secretion, dose-response: dose-dependent inhibition

## O=C(/C=C/C1CCCCC1)NO [G2M-707]
Inflammatory cytokines [2]
  cytokine expression (mRNA): can modulate cytokine expression
IL-2 and TNF-α
  concentration at which inhibition of IL-2 and TNF-α expression was maximal: 1 µM
  IL-2 secretion, dose-response: dose-dependent inhibition
  TNF-α secretion, dose-response: dose-dependent inhibition

## CCCC(=O)OCOC(=O)C(C)(C)C [Pivanex, Pivaloyloxymethyl butyrate]
[3]
  clinical activity: demonstrating activity

## O=C(CCCCCCC(=O)Nc1ccccc1)NO [SAHA, suberoylanilide hydroxamic acid]
Inflammatory cytokines [2]
  cytokine expression (mRNA): can modulate cytokine expression

## CC(/C=C/C(=O)NO)=C\[C@@H](C)C(=O)c1ccc(N(C)C)cc1 [TSA, trichostatin A]
Inflammatory cytokines [4]
  IFN-γ mRNA transcript: virtually unaffected
Inflammatory cytokines [4]; [9]
  IL-6 mRNA level: significant decrease
  TNF-α mRNA level: significant decrease
Inflammatory cytokines [2]; [10]
  IL-4 mRNA transcripts: significantly reduced
  IL-6 mRNA transcripts: only moderate effects
F9 cells
  F9 cell differentiation: induces the same type of F9 cell differentiation as VPA
PPARδ
  PPARδ activation: activates

## CCOC(=O)c1ccc(C#Cc2ccc3c(c2)C(C)(C)CCS3)nc1 [Tazarotene]
Basal Cell Carcinoma [5]
  share of BCC's in which regression is induced: ~50%
  side effects (such as pain and itching): several unwanted side effects
  time to regression: 12-24 weeks
Basal Cell Carcinoma [6]
  tumor diameter under Tazarotene alone: no reduction of tumor diameter
HaCaT cells [1]; treated three days, MTT on day 3, combinations VPA 1 mM + Tazarotene 1 or 2 μM, FIG. 1
  cell growth (MTT assay): inhibited cell growth
HaCaT cells [7]
  apoptosis (Sub-G1 DNA containing cells): induces apoptosis

## C/C=C1\NC(=O)[C@H]2CSSCC/C=C/[C@H](CC(=O)N[C@H](C(C)C)C(=O)N2)OC(=O)[C@H](C(C)C)NC1=O [depsipeptide]
T-cell lymphomas
  clinical outcome: used successfully

## phenylbutyrate
[8]
  clinical outcome of leukemia: complete remission of the leukemia
